Species on record: Rattus norvegicus
Assay: DrugMatrix - Regimen: Daily Repeat
Assay type: toxicity, organism-based, Sprague-Dawley
Set-up: regimen Daily Repeat, gender Male, age 6-8 weeks
Details: in vivo, po, route oral GAVAGE, vehicle 100 % WATER; for BASOPHIL / EOSINOPHIL / ERYTHROCYTE COUNT / HEMATOCRIT / HEMOGLOBIN / LEUKOCYTE COUNT / LYMPHOCYTE / MEAN CORPUSCULAR HEMOGLOBIN / MEAN CORPUSCULAR HEMOGLOBIN CONCENTRATION / MEAN CORPUSCULAR VOLUME / MONOCYTE / NEUTROPHIL / PLATELET COUNT: tissue Blood; for ALANINE AMINOTRANSFERASE / ALBUMIN / ALKALINE PHOSPHATASE / ASPARTATE AMINOTRANSFERASE / BLOOD UREA NITROGEN / CARBON DIOXIDE / CHLORIDE / CHOLESTEROL / CREATINE PHOSPHOKINASE / CREATININE / GLUCOSE / LACTATE DEHYDROGENASE / LIPASE / PHOSPHORUS / POTASSIUM / SODIUM / TOTAL BILIRUBIN / TOTAL PROTEIN / URIC ACID: tissue Plasma
[1] = 0 mg/kg, 96 h, dose level Control, time 4 day
[2] = 0 mg/kg, […], dose level Control, time 6 day
[3] = 0 mg/kg, […], dose level Control, time 14 day
[4] = […], 96 h, dose 1.6 mg/Kg, dose level High, time 4 day
[5] = […], dose 1.6 mg/Kg, dose level High, time 6 day
[6] = […], dose 1.6 mg/Kg, dose level High, time 14 day

## O=[Se](=O)([O-])[O-].[Na+].[Na+] [SODIUM SELENATE]
[1]
  BASOPHIL: 0.47%
  EOSINOPHIL: 0.58%
  ERYTHROCYTE COUNT: 6.84 x10E6/uL
  HEMATOCRIT: 44.27%
  HEMOGLOBIN: 14.08 G/DL
  LEUKOCYTE COUNT: 13.39 x10E3/uL
  LYMPHOCYTE: 83.57%
  MEAN CORPUSCULAR HEMOGLOBIN: 20.57 pg
  MEAN CORPUSCULAR HEMOGLOBIN CONCENTRATION: 31.77 G/DL
  MEAN CORPUSCULAR VOLUME: 64.68 fL
  MONOCYTE: 1.92%
  NEUTROPHIL: 12.95%
  PLATELET COUNT: 1533.67 x10E3/uL
  ALANINE AMINOTRANSFERASE: 28.17 u/L
  ALBUMIN: 3.82 G/DL
  ALKALINE PHOSPHATASE: 354.33 u/L
  ASPARTATE AMINOTRANSFERASE: 73.83 u/L
  BLOOD UREA NITROGEN: 16 mg/dL
  CARBON DIOXIDE: 27.17 mmol/L
  CHLORIDE: 104.83 MEQ/L
  CHOLESTEROL: 83.33 mg/dL
  CREATINE PHOSPHOKINASE: 288 u/L
  CREATININE: 0.33 mg/dL
  GLUCOSE: 181.33 mg/dL
  LACTATE DEHYDROGENASE: 173.17 u/L
  LIPASE: 17.67 u/L
  PHOSPHORUS: 11.5 mg/dL
  POTASSIUM: 6.8 MEQ/L
  SODIUM: 147 MEQ/L
  TOTAL BILIRUBIN: 0.35 mg/dL
  TOTAL PROTEIN: 6.35 G/DL
  URIC ACID: 1.55 mg/dL
[2]
  BASOPHIL: 0.33%
  EOSINOPHIL: 0.85%
  ERYTHROCYTE COUNT: 6.98 x10E6/uL
  HEMATOCRIT: 38.58%
  HEMOGLOBIN: 14.25 G/DL
  LEUKOCYTE COUNT: 11.01 x10E3/uL
  LYMPHOCYTE: 85.07%
  MEAN CORPUSCULAR HEMOGLOBIN: 20.47 pg
  MEAN CORPUSCULAR HEMOGLOBIN CONCENTRATION: 31.45 G/DL
  MEAN CORPUSCULAR VOLUME: 64.9 fL
  MONOCYTE: 1.9%
  NEUTROPHIL: 11.42%
  PLATELET COUNT: 1289.67 x10E3/uL
  ALANINE AMINOTRANSFERASE: 28.17 u/L
  ALBUMIN: 3.78 G/DL
  ALKALINE PHOSPHATASE: 385.33 u/L
  ASPARTATE AMINOTRANSFERASE: 78 u/L
  BLOOD UREA NITROGEN: 16.83 mg/dL
  CARBON DIOXIDE: 26.67 mmol/L
  CHLORIDE: 106.83 MEQ/L
  CHOLESTEROL: 82.67 mg/dL
  CREATINE PHOSPHOKINASE: 225.5 u/L
  CREATININE: 0.27 mg/dL
  GLUCOSE: 179.5 mg/dL
  LACTATE DEHYDROGENASE: 98.33 u/L
  LIPASE: 14.67 u/L
  PHOSPHORUS: 12.28 mg/dL
  POTASSIUM: 7.03 MEQ/L
  SODIUM: 150.33 MEQ/L
  TOTAL BILIRUBIN: 0.38 mg/dL
  TOTAL PROTEIN: 6.45 G/DL
  URIC ACID: 1.6 mg/dL
[3]
  BASOPHIL: 0.52%
  EOSINOPHIL: 0.55%
  ERYTHROCYTE COUNT: 7.72 x10E6/uL
  HEMATOCRIT: 51.87%
  HEMOGLOBIN: 15.32 G/DL
  LEUKOCYTE COUNT: 16.2 x10E3/uL
  LYMPHOCYTE: 85.13%
  MEAN CORPUSCULAR HEMOGLOBIN: 19.85 pg
  MEAN CORPUSCULAR HEMOGLOBIN CONCENTRATION: 29.52 G/DL
  MEAN CORPUSCULAR VOLUME: 67.17 fL
  MONOCYTE: 1.7%
  NEUTROPHIL: 11.6%
  PLATELET COUNT: 1104.17 x10E3/uL
  ALANINE AMINOTRANSFERASE: 37 u/L
  ALBUMIN: 4.13 G/DL
  ALKALINE PHOSPHATASE: 342 u/L
  ASPARTATE AMINOTRANSFERASE: 71 u/L
  BLOOD UREA NITROGEN: 16.5 mg/dL
  CARBON DIOXIDE: 28.17 mmol/L
  CHLORIDE: 104 MEQ/L
  CHOLESTEROL: 70.67 mg/dL
  CREATINE PHOSPHOKINASE: 287.67 u/L
  CREATININE: 0.38 mg/dL
  GLUCOSE: 150.17 mg/dL
  LACTATE DEHYDROGENASE: 81.33 u/L
  LIPASE: 16 u/L
  PHOSPHORUS: 11.32 mg/dL
  POTASSIUM: 6.22 MEQ/L
  SODIUM: 147.33 MEQ/L
  TOTAL BILIRUBIN: 0.43 mg/dL
  TOTAL PROTEIN: 6.55 G/DL
  URIC ACID: 1.38 mg/dL
[4]
  BASOPHIL: 0.33%
  EOSINOPHIL: 0.73%
  ERYTHROCYTE COUNT: 6.6 x10E6/uL
  HEMATOCRIT: 40.23%
  HEMOGLOBIN: 12.93 G/DL
  LEUKOCYTE COUNT: 11.54 x10E3/uL
  LYMPHOCYTE: 85%
  MEAN CORPUSCULAR HEMOGLOBIN: 19.6 pg
  MEAN CORPUSCULAR HEMOGLOBIN CONCENTRATION: 32.13 G/DL
  MEAN CORPUSCULAR VOLUME: 60.97 fL
  MONOCYTE: 1.8%
  NEUTROPHIL: 11.6%
  PLATELET COUNT: 1460.67 x10E3/uL
  ALANINE AMINOTRANSFERASE: 31.33 u/L
  ALBUMIN: 3.73 G/DL
  ALKALINE PHOSPHATASE: 296.67 u/L
  ASPARTATE AMINOTRANSFERASE: 69.67 u/L
  BLOOD UREA NITROGEN: 16 mg/dL
  CARBON DIOXIDE: 24 mmol/L
  CHLORIDE: 107.67 MEQ/L
  CHOLESTEROL: 75.33 mg/dL
  CREATINE PHOSPHOKINASE: 411.33 u/L
  CREATININE: 0.4 mg/dL
  GLUCOSE: 170.67 mg/dL
  LACTATE DEHYDROGENASE: 107.33 u/L
  LIPASE: 18 u/L
  PHOSPHORUS: 11.1 mg/dL
  POTASSIUM: 6.2 MEQ/L
  SODIUM: 148.33 MEQ/L
  TOTAL BILIRUBIN: 0.4 mg/dL
  TOTAL PROTEIN: 6.2 G/DL
  URIC ACID: 1.3 mg/dL
[5]
  BASOPHIL: 0.27%
  EOSINOPHIL: 0.3%
  ERYTHROCYTE COUNT: 7.08 x10E6/uL
  HEMATOCRIT: 44.53%
  HEMOGLOBIN: 14.1 G/DL
  LEUKOCYTE COUNT: 12.82 x10E3/uL
  LYMPHOCYTE: 83.7%
  MEAN CORPUSCULAR HEMOGLOBIN: 19.97 pg
  MEAN CORPUSCULAR HEMOGLOBIN CONCENTRATION: 31.7 G/DL
  MEAN CORPUSCULAR VOLUME: 62.9 fL
  MONOCYTE: 2.23%
  NEUTROPHIL: 13.07%
  PLATELET COUNT: 1297.33 x10E3/uL
  ALANINE AMINOTRANSFERASE: 33 u/L
  ALBUMIN: 4.03 G/DL
  ALKALINE PHOSPHATASE: 331 u/L
  ASPARTATE AMINOTRANSFERASE: 80 u/L
  BLOOD UREA NITROGEN: 16.33 mg/dL
  CARBON DIOXIDE: 23.67 mmol/L
  CHLORIDE: 108.67 MEQ/L
  CHOLESTEROL: 74.67 mg/dL
  CREATINE PHOSPHOKINASE: 413 u/L
  CREATININE: 0.37 mg/dL
  GLUCOSE: 182.67 mg/dL
  LACTATE DEHYDROGENASE: 123 u/L
  LIPASE: 8 u/L
  PHOSPHORUS: 12.5 mg/dL
  POTASSIUM: 6.73 MEQ/L
  SODIUM: 151.67 MEQ/L
  TOTAL BILIRUBIN: 0.37 mg/dL
  TOTAL PROTEIN: 6.83 G/DL
  URIC ACID: 1.77 mg/dL
[6]
  BASOPHIL: 0.42%
  EOSINOPHIL: 0.92%
  ERYTHROCYTE COUNT: 8.04 x10E6/uL
  HEMATOCRIT: 52.44%
  HEMOGLOBIN: 15.34 G/DL
  LEUKOCYTE COUNT: 13.75 x10E3/uL
  LYMPHOCYTE: 84.4%
  MEAN CORPUSCULAR HEMOGLOBIN: 19.12 pg
  MEAN CORPUSCULAR HEMOGLOBIN CONCENTRATION: 29.26 G/DL
  MEAN CORPUSCULAR VOLUME: 65.28 fL
  MONOCYTE: 2.18%
  NEUTROPHIL: 11.62%
  PLATELET COUNT: 1231.6 x10E3/uL
  ALANINE AMINOTRANSFERASE: 40.4 u/L
  ALBUMIN: 4.2 G/DL
  ALKALINE PHOSPHATASE: 262.8 u/L
  ASPARTATE AMINOTRANSFERASE: 72.4 u/L
  BLOOD UREA NITROGEN: 16.4 mg/dL
  CARBON DIOXIDE: 27.4 mmol/L
  CHLORIDE: 104.4 MEQ/L
  CHOLESTEROL: 63.8 mg/dL
  CREATINE PHOSPHOKINASE: 181 u/L
  CREATININE: 0.42 mg/dL
  GLUCOSE: 154.8 mg/dL
  LACTATE DEHYDROGENASE: 91 u/L
  LIPASE: 11.6 u/L
  PHOSPHORUS: 11.26 mg/dL
  POTASSIUM: 6.38 MEQ/L
  SODIUM: 148.4 MEQ/L
  TOTAL BILIRUBIN: 0.4 mg/dL
  TOTAL PROTEIN: 6.72 G/DL
  URIC ACID: 1.52 mg/dL

Source: ChEMBL document CHEMBL3885881, “DrugMatrix”
